From patent publication US7741347B2, “Hepatitis C virus inhibitors” (Bristol-Myers Squibb Company, priority 2007, dated 2010)
pEC50: −log10 of the molar value.

What follows are compounds tested on HCV 1b-377-neo replicon cells (assay: HCV replicon assay, wild-type cells). Details: Hepatitis C virus, read-out: EC50 against the HCV 1b genotype (Activity).
Format: cell-based
Experimental: An HCV Replion assay was utilized in the present disclosure, and was prepared, conducted and validated as described in commonly owned PCT/US2006/022197 and in O'Boyle et. al. Antimicrob Agents Chemother. 2005 April; 49(4): 1346-53.
HCV 1b-377-neo replicon cells were used to test representative compounds described within this disclosure as were cells resistant to compound A due to a Y2065H mutation in NS5A (described in application PCT/US2006/022197). The compounds tested were determined to have an approximately 10-fold less inhibitory activity on cells resistant to compound A than wild-type cells indicating a related mechanism of action between the two compound series. Thus, the compounds can be effective to be effective to inhibit the function of the HCV NS5A protein and are understood to be as effective in combinations as previously described in application PCT/US2006/022197 and commonly owned WO/04014852. Further, the compounds are effective against the HCV 1b genotype. It should also be understood that the compounds of the present disclosure can inhibit multiple genotypes of HCV. […] Ranges are as follows: A=1-10 μM; B=100-999 nM; C=1-99 nM; and D=10-999 pM.

Compound	pEC50
COC(=O)N[C@@H](C(=O)N1CCC[C@H]1c1cc(-c2ccc(-c3ccc(-c4cnc([C@@H]5CCCN5C(=O)[C@H](NC(=O)OC)c5ccccc5)[nH]4)cc3)cc2)n[nH]1)c1ccccc1 [Example 31]	9.00 to 11.00
CN(C)[C@@H](C(=O)N1CCC[C@H]1c1cc(-c2ccc(-c3ccc(-c4cnc([C@@H]5CCCN5C(=O)[C@@H](c5ccccc5)N(C)C)[nH]4)cc3)cc2)n[nH]1)c1ccccc1 [Example 32]	9.00 to 11.00
COC(=O)N[C@@H](C(=O)N1CCC[C@H]1c1ncc(-c2ccc(-c3ccc(-c4nnc([C@@H]5CCCN5C(=O)[C@H](NC(=O)OC)c5ccccc5)[nH]4)cc3)cc2)[nH]1)c1ccccc1 [Example 33]	9.00 to 11.00
COC(=O)N[C@@H](C(=O)N1CCC[C@H]1c1nnc(-c2ccc(-c3ccc(-c4nnc([C@@H]5CCCN5C(=O)[C@H](NC(=O)OC)c5ccccc5)[nH]4)cc3)cc2)[nH]1)c1ccccc1 [Example 34]	9.00 to 11.00
CN(C)[C@@H](C(=O)N1CCC[C@H]1c1nnc(-c2ccc(-c3ccc(-c4nnc([C@@H]5CCCN5C(=O)[C@@H](c5ccccc5)N(C)C)[nH]4)cc3)cc2)[nH]1)c1ccccc1 [Example 35]	7.00 to 9.00
COC(=O)N[C@H](C(=O)N1CCC[C@H]1c1cnc(-c2ccc(-c3ccc(-c4cnc([C@@H]5CCCN5C(=O)[C@@H](NC(=O)OC)[C@@H](C)OC)o4)cc3)cc2)[nH]1)[C@@H](C)OC [Example 38]	9.00 to 11.00

Same assay, conditions: read-out: EC50 against the HCV 1b genotype (Activity)

Compound	pEC50
COC(=O)NC(C(=O)N1CCCC1c1cc(-c2ccc(-c3ccc(-c4cc(C5CCCN5C(=O)C(NC(=O)OC)c5ccccc5)n[nH]4)cc3)cc2)[nH]n1)c1ccccc1 [Example 30, Dimethyl-(1R,1′R)-2,2′-((2S,2′S)-2,2′-(5,5′-(biphenyl-4,4′-diyl)bis(1H-pyrazole-5,3-diyl))bis(pyrrolidine-2,1-diyl))bis(2-oxo-1-phenylethane-2,1-diyl)dicarbamate]	7.00 to 9.00
